Here are results for 8 compounds from PubChem BioAssay (NCI).

Some test systems named below: COLO 205 colon; HCC-2998 colon; IGROV1 ovarian; M14 melanoma; MOLT-4 leukemia; NCI-H23 lung; NCI/ADR-RES ovarian; OVCAR-3 ovarian; SK-MEL-5 melanoma; U251 CNS.
Assay in all cases: DTP human tumour cell line panel, 48 h

Molecules are shown by their SMILES.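 Test compounds were applied to cells in 96-well plates for 48 hours at 5 doses. The concentration for 50% growth inhibition is given as GI50. TGI: concentration producing complete growth inhibition.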 Where only a bound is given, the exact number is not on record here.

In the case of `O=C(Nc1cc(Nc2ncccc2-c2ncnc3nc[nH]c23)ccc1F)c1cc(C(F)(F)F)cc(C(F)(F)F)c1`, the GI50 in the experiment with COLO 205 colon is 0.39 µM; in the experiment with HCC-2998 colon, 1.24 µM; with IGROV1 ovarian it was 1.63 µM; in the experiment on M14 melanoma, 0.33 µM; in the experiment on MOLT-4 leukemia it was 2.32 µM; in the experiment on NCI-H23 lung it was 1.45 µM. In addition, the GI50 in the experiment on NCI/ADR-RES ovarian was 2.08 µM; in the experiment with OVCAR-3 ovarian it was 2.67 µM; in the experiment on SK-MEL-5 melanoma it was 1.12 µM; with U251 CNS it was 2.88 µM. For the same compound, the TGI was 2.2 µM with COLO 205 colon; 2.74 µM in the experiment with HCC-2998 colon; 7.2 µM in the experiment with IGROV1 ovarian; 1.6 µM in the experiment on M14 melanoma; 6.67 µM in the experiment with MOLT-4 leukemia; > 10 µM in the experiment on NCI-H23 lung. The TGI was 7.32 µM with NCI/ADR-RES ovarian, 6.69 µM in the experiment on OVCAR-3 ovarian, 2.76 µM in the experiment with SK-MEL-5 melanoma and > 10 µM in the experiment on U251 CNS.

For the compound `N[C@H](CCC(=O)N[C@@H](Cc1c[nH]c2ccccc12)C(=O)O)C(=O)O`, the GI50 in the experiment on COLO 205 colon, with HCC-2998 colon, with IGROV1 ovarian, with M14 melanoma, in the experiment on MOLT-4 leukemia and in the experiment on NCI-H23 lung was > 100 µM in each case. Besides, the GI50 in the experiment on NCI/ADR-RES ovarian, in the experiment on OVCAR-3 ovarian, in the experiment on SK-MEL-5 melanoma and in the experiment on U251 CNS was > 100 µM in each case. For the same compound, the TGI with COLO 205 colon, in the experiment with HCC-2998 colon, in the experiment with IGROV1 ovarian, in the experiment on M14 melanoma, in the experiment with MOLT-4 leukemia and with NCI-H23 lung was > 100 µM in each case. Moreover, the TGI in the experiment on NCI/ADR-RES ovarian, in the experiment with OVCAR-3 ovarian, in the experiment with SK-MEL-5 melanoma and in the experiment on U251 CNS was > 100 µM throughout.

As to `O=C(NCc1ccc(Cn2c(=O)sn(-c3ccccc3)c2=O)cc1)OCc1ccc2cccc(O)c2n1`, the GI50 in the experiment on COLO 205 colon is 0.608 µM; in the experiment with HCC-2998 colon, 1.81 µM; with IGROV1 ovarian it was 0.596 µM; in the experiment on M14 melanoma, 0.647 µM; in the experiment on MOLT-4 leukemia it was 0.785 µM; in the experiment on NCI-H23 lung, 1.46 µM. Moreover, the GI50 in the experiment on NCI/ADR-RES ovarian was 1.7 µM; with OVCAR-3 ovarian, 0.363 µM; in the experiment on SK-MEL-5 melanoma, 1.6 µM; in the experiment on U251 CNS it was 1.47 µM. In addition, the concentration for total growth inhibition (TGI) in the experiment with COLO 205 colon was 2.29 µM; in the experiment with HCC-2998 colon it was 3.51 µM; in the experiment on IGROV1 ovarian, 1.96 µM; in the experiment with M14 melanoma it was 2.03 µM; in the experiment on MOLT-4 leukemia it was > 24.3 µM; with NCI-H23 lung, 3.06 µM. Also, the concentration for total growth inhibition (TGI) in the experiment with NCI/ADR-RES ovarian is 8.87 µM; in the experiment with OVCAR-3 ovarian, 1.36 µM; in the experiment with SK-MEL-5 melanoma, 2.97 µM; with U251 CNS it was 2.92 µM.

Regarding `CC(C)(C)[Si](C)(C)OC1[C@@H](CNC(=O)NC(=O)CCl)O[C@@H](n2cnc3c(N)ncnc32)[C@H]1O[Si](C)(C)C(C)(C)C` (stereo not given in full), the GI50 is 1.45 µM in the experiment on COLO 205 colon; 1.61 µM in the experiment on HCC-2998 colon; 0.154 µM in the experiment on IGROV1 ovarian; 1.07 µM in the experiment with M14 melanoma; 0.53 µM in the experiment on MOLT-4 leukemia; 0.955 µM in the experiment on NCI-H23 lung. Moreover, the GI50 in the experiment on NCI/ADR-RES ovarian was 1.18 µM; in the experiment on OVCAR-3 ovarian, 1.02 µM; in the experiment on SK-MEL-5 melanoma, 0.862 µM; in the experiment on U251 CNS it was 0.849 µM. In addition, the concentration for total growth inhibition (TGI) with COLO 205 colon came out at 3.55 µM; in the experiment on HCC-2998 colon it was 3.95 µM; in the experiment on IGROV1 ovarian, 0.441 µM; in the experiment on M14 melanoma, 2.49 µM; in the experiment with MOLT-4 leukemia, 1.73 µM; in the experiment on NCI-H23 lung, 2.08 µM. For the same compound, the TGI turned out to be 3.11 µM in the experiment on NCI/ADR-RES ovarian, 1.94 µM in the experiment with OVCAR-3 ovarian, 1.6 µM in the experiment with SK-MEL-5 melanoma and 1.58 µM in the experiment on U251 CNS.

For the compound `Nc1ccccc1O.O.O=C(O)C1[O][Sb][O]C1C(=O)O` (stereo not given), the GI50 in the experiment with COLO 205 colon is 18.7 µM; with HCC-2998 colon it was 17.9 µM; with IGROV1 ovarian it was 17.6 µM; in the experiment on M14 melanoma, 11.5 µM; in the experiment with MOLT-4 leukemia it was 10.8 µM; in the experiment on NCI-H23 lung, 17.6 µM. Further, the GI50 is 28.6 µM in the experiment on NCI/ADR-RES ovarian, 13.4 µM in the experiment on OVCAR-3 ovarian, 1.77 µM in the experiment on SK-MEL-5 melanoma and 13.8 µM with U251 CNS. Besides, the TGI in the experiment on COLO 205 colon is 35.3 µM; in the experiment on HCC-2998 colon it was 47.7 µM; in the experiment with IGROV1 ovarian, 33.2 µM; in the experiment with M14 melanoma, 25.9 µM; with MOLT-4 leukemia, > 100 µM; in the experiment with NCI-H23 lung, 44.2 µM. Further, the TGI with NCI/ADR-RES ovarian was > 87.2 µM; with OVCAR-3 ovarian it was 28.6 µM; with SK-MEL-5 melanoma it was 3.99 µM; in the experiment on U251 CNS it was 27.8 µM.

Regarding `C#CCOc1cccc(Nc2ncnc3c(NC(=O)C=C)cccc23)c1`, the GI50 in the experiment with COLO 205 colon is 24.6 µM; with HCC-2998 colon, 17.7 µM; in the experiment on IGROV1 ovarian, 17.8 µM; in the experiment on M14 melanoma it was 19.4 µM; in the experiment on MOLT-4 leukemia, 19.4 µM; in the experiment with NCI-H23 lung, 24.8 µM. Further, the GI50 with NCI/ADR-RES ovarian is 19.8 µM; in the experiment with OVCAR-3 ovarian it was 16.5 µM; with SK-MEL-5 melanoma, 14.8 µM; in the experiment on U251 CNS, 30.4 µM. Also, the TGI in the experiment on COLO 205 colon was 73.4 µM; in the experiment on HCC-2998 colon, 33.9 µM; in the experiment on IGROV1 ovarian it was 44.9 µM; in the experiment with M14 melanoma, 67.8 µM; in the experiment on MOLT-4 leukemia, > 100 µM; with NCI-H23 lung, > 100 µM. For the same compound, the TGI in the experiment with NCI/ADR-RES ovarian was 98.1 µM; in the experiment on OVCAR-3 ovarian, 91.5 µM; in the experiment with SK-MEL-5 melanoma, 33.1 µM; in the experiment on U251 CNS, > 100 µM.

For the compound `NNCCc1ccc(NC(=O)CCCc2ccc(C(=O)Nc3ccccc3N)cc2)cc1`, the GI50 in the experiment with COLO 205 colon is 8.48 µM; in the experiment with HCC-2998 colon it was 18 µM; in the experiment on IGROV1 ovarian it was 31 µM; with M14 melanoma, 15.2 µM; with MOLT-4 leukemia it was 3.22 µM; in the experiment with NCI-H23 lung it was 21 µM. For the same compound, the GI50 was 21.6 µM in the experiment with NCI/ADR-RES ovarian, 9.42 µM with OVCAR-3 ovarian, 6.19 µM in the experiment on SK-MEL-5 melanoma and 12 µM in the experiment with U251 CNS. For the same compound, the TGI with COLO 205 colon is 40.7 µM; in the experiment with HCC-2998 colon it was > 100 µM; in the experiment with IGROV1 ovarian it was > 100 µM; with M14 melanoma, > 100 µM; with MOLT-4 leukemia, 26.8 µM; in the experiment with NCI-H23 lung it was > 100 µM. The TGI in the experiment on NCI/ADR-RES ovarian was > 100 µM; in the experiment on OVCAR-3 ovarian, > 100 µM; with SK-MEL-5 melanoma it was 21.7 µM; in the experiment with U251 CNS, > 100 µM.

For the compound `CCCC/C(=C\C1=C(C)C(=O)C(OC)=C(OC)C1=O)C(=O)O`, the GI50 with COLO 205 colon is > 100 µM; with HCC-2998 colon it was > 100 µM; in the experiment with IGROV1 ovarian it was > 100 µM; in the experiment on M14 melanoma, > 100 µM; in the experiment on MOLT-4 leukemia, 6.54 µM; in the experiment with NCI-H23 lung, > 100 µM. Also, the GI50 in the experiment on NCI/ADR-RES ovarian, in the experiment with OVCAR-3 ovarian, in the experiment with SK-MEL-5 melanoma and with U251 CNS was > 100 µM in each case. In addition, the TGI in the experiment on COLO 205 colon, with HCC-2998 colon, in the experiment with IGROV1 ovarian, in the experiment on M14 melanoma, in the experiment on MOLT-4 leukemia and with NCI-H23 lung was > 100 µM in each case. Also, the concentration for total growth inhibition (TGI) with NCI/ADR-RES ovarian, in the experiment with OVCAR-3 ovarian, with SK-MEL-5 melanoma and in the experiment on U251 CNS was > 100 µM in each case.
